Like-named read-outs stand apart in the source and are kept apart here.
Assays:
μ-opioid receptor [1] = target: T1, μ-opioid receptor (Homo sapiens (Human), UniProt P35372); experiment: μ-opioid receptor radioligand dose-displacement binding assay ([3H]-diprenorphine); details: binding assays using HEK-293 cells; read-out: Opioid Receptor Ki (nM) μ
Procedure: Radioligand dose-displacement binding assays for μ-opioid receptors used 0.3 nM [^3H]-diprenorphine (Perkin Elmer, Shelton, Conn.), with […] membrane protein/well in a final volume of 500 μl binding buffer (10 mM MgCl2, 1 mM EDTA, 5% DMSO, 50 mM HEPES, pH 7.4). Reactions were carried out in the absence or presence of increasing concentrations of unlabeled naloxone. All reactions were conducted in 96-deep well polypropylene plates for 2 hours at room temperature. Binding reactions were terminated by rapid filtration onto 96-well Unifilter GF/C filter plates (Perkin Elmer, Shelton, Conn.), presoaked in 0.5% polyethylenimine using a 96-well tissue harvester (Perkin Elmer, Shelton, Conn.) followed by performing three filtration washes with 500 μl of ice-cold binding buffer. Filter plates were subsequently dried at 50° C. for 2-3 hours. BetaScint scintillation cocktail (Perkin Elmer, Shelton, Conn.) was added (50 μl/well), and plates were counted using a Packard Top-Count for 1 min/well. The data were analyzed using the one-site competition curve fitting functions in GraphPad PRISM™ v. 3.0 or higher (San Diego, Calif.), or an in-house function for one-site competition curve-fitting.
(§1) In TABLE 1, binding affinity of certain Compounds of the Invention to the μ- and κ-opioid receptors was determined as described above for binding assays using HEK-293 cells.

μ-opioid receptor [2] = target: T1, μ-opioid receptor; experiment: μ-opioid receptor [35S]GTPγS functional assay; format: biochemical
Procedure: [^35S]GTPγS functional assays were conducted using freshly thawed μ-receptor membranes prepared in-house from a cell line expressing recombinant μ opioid receptor in a HEK-293, CHO or U-2 OS cell background, or purchased from a commercial source (Perkin Elmer, Shelton, Conn.; or DiscovRx, Fremont, Calif.). Assay reactions were prepared by sequentially adding the following reagents to binding buffer (100 mM NaCl, 10 mM MgCl2, 20 mM HEPES, pH 7.4) on ice (final concentrations indicated): membrane protein (0.026 mg/mL), saponin ([…]), GDP ([…]) and [^35S]GTPγS (0.20 nM; Perkin Elmer, Shelton, Conn.). The prepared membrane solution (190 l/well) was transferred to 96-shallow well polypropylene plates containing 10 μl of 20× concentrated stock solutions of the agonist [D-Ala^2, N-methyl-Phe^4 Gly-ol^5]-enkephalin (DAMGO) prepared in dimethyl sulfoxide (DMSO). Plates were incubated for 30 min at about 25° C. with shaking. Reactions were terminated by rapid filtration onto 96-well Unifilter GF/B filter plates (Perkin Elmer, Shelton, Conn.) using a 96-well tissue harvester (Perkin Elmer, Shelton, Conn.) followed by three filtration washes with 200 μl of ice-cold wash buffer (10 mM NaH2PO4, 10 mM Na2HPO4, pH 7.4). Filter plates were subsequently dried at 50° C. for 2-3 hours. BetaScint scintillation cocktail (Perkin Elmer, Shelton, Conn.) was added (50 μl/well) and plates were counted using a Packard Top-Count for 1 min/well. Data were analyzed using the sigmoidal dose-response curve fitting functions in GraphPad PRISM v. 3.0, or an in-house function for non-linear, sigmoidal dose-response curve-fitting.
μ GTP EC50 is the concentration of a compound providing 50% of the maximal response for the compound at a μ-opioid receptor.
μ GTP Emax (%) is the maximal effect elicited by a compound relative to the effect elicited by DAMGO, a standard μ agonist. Generally, the μ GTP Emax (%) value measures the efficacy of a compound to treat or prevent pain or other Conditions.
(§2) In TABLE 2, activity response of certain Compounds of the Invention to the μ- and κ-opioid receptors was determined as described above for functional assays using U-2 OS cells.

κ opioid receptor [3] = target: T2, κ opioid receptor (Homo sapiens (Human), UniProt P41145); experiment: κ-opioid receptor radioligand dose-displacement binding assay ([3H]-U69,593); details: binding assays using HEK-293 cells; read-out: Opioid Receptor Ki (nM) κ
Procedure: Membranes from HEK-293 cells, CHO or U-2 OS cells expressing the recombinant human κ opioid receptor (κ) were prepared by lysing cells in ice cold hypotonic buffer (2.5 mM MgCl2, 50 mM HEPES, pH 7.4) (10 mL/10 cm dish) followed by homogenization with a tissue grinder/Teflon pestle. Membranes from a cell line naturally expressing kappa opioid receptor can also be used. Membranes were collected by centrifugation at 30,000×g for 15 min at 4° C. and pellets were resuspended in hypotonic buffer to a final concentration of 1-3 mg/mL. Protein concentrations were determined using the BioRad protein assay reagent with bovine serum albumen as standard. Aliquots of K receptor membranes were stored at −80° C.
Radioligand dose displacement assays used 0.4 nM [^3H]-U69,593 (GE Healthcare, Piscataway, N.J.; 40 Ci/mmole) with 15 μg membrane protein (recombinant κ opioid receptor expressed in HEK 293 cells; in-house prep) in a final volume of 200 μl binding buffer (5% DMSO, 50 mM Trizma base, pH 7.4). Non-specific binding was determined in the presence of 10 μM unlabeled naloxone or U69,593. All reactions were performed in 96-well polypropylene plates for 1 hour at a temperature of about 25° C. Binding reactions were terminated by rapid filtration onto 96-well Unifilter GF/C filter plates (Perkin Elmer, Shelton, Conn.) presoaked in 0.5% polyethylenimine (Sigma). Harvesting was performed using a 96-well tissue harvester (Perkin Elmer, Shelton, Conn.) followed by five filtration washes with 200 μl ice-cold binding buffer. Filter plates were subsequently dried at 50° C. for 1-2 hours. Fifty μl/well scintillation cocktail (Perkin Elmer, Shelton, Conn.) was added and plates were counted in a Packard Top-Count for 1 min/well.
as §1

κ opioid receptor [4] = target: T2, κ opioid receptor; experiment: κ-opioid receptor [35S]GTPγS functional assay; format: biochemical
Procedure: Functional [^35S]GTPγS binding assays were conducted as follows. κ opioid receptor membrane solution was prepared by sequentially adding final concentrations of 0.026 μg/μl κ membrane protein (in-house), 10 μg/mL saponin, 3 μM GDP and 0.20 nM [^35S]GTPγS to binding buffer (100 mM NaCl, 10 mM MgCl2, 20 mM HEPES, pH 7.4) on ice. The prepared membrane solution (190 μl/well) was transferred to 96-shallow well polypropylene plates containing 10 μl of 20× concentrated stock solutions of agonist prepared in DMSO. Plates were incubated for 30 min at a temperature of about 25° C. with shaking. Reactions were terminated by rapid filtration onto 96-well Unifilter GF/B filter plates (Perkin Elmer, Shelton, Conn.) using a 96-well tissue harvester (Packard) and followed by three filtration washes with 200 μl ice-cold binding buffer (10 mM NaH2PO4, 10 mM Na2HPO4, pH 7.4). Filter plates were subsequently dried at 50° C. for 2-3 hours. Fifty μl/well scintillation cocktail (Perkin Elmer, Shelton, Conn.) was added and plates were counted in a Packard Top-Count for 1 min/well.
κ GTP EC50 is the concentration of a compound providing 50% of the maximal response for the compound at a K receptor.
κ GTP Emax (%) is the maximal effect elicited by a compound relative to the effect elicited by U69,593.
as §2

[5] = functional assays using U-2 OS cells, relative to the effect elicited by DAMGO
[6] = functional assays using U-2 OS cells, relative to the effect elicited by U69,593

Row | Compound | Ki (μ-opioid receptor [1]) | EC50 (μ-opioid receptor [2]) | Emax (μ-opioid receptor [2]; [5]) | Ki (κ opioid receptor [3]) | EC50 (κ opioid receptor [4]) | Emax (κ opioid receptor [4]; [6]) | EC50 (μ-opioid receptor [2]; functional assays using U-2 OS cells, read-out: Opioid Receptor μ EC50) | Opioid Receptor μ Emax (%) (μ-opioid receptor [2]; [5]) | EC50 (κ opioid receptor [4]; functional assays using U-2 OS cells, read-out: Opioid Receptor κ EC50) | Opioid Receptor κ Emax (%) (κ opioid receptor [4]; [6])
1 | O=C1NC(=O)[C@@]2(CC[C@@]3(O)[C@H]4C(=O)c5ccc(O)cc5[C@@]3(CCN4CC3CC3)C2)N1 [Compound 13, (4bR,4′S,8aS,9S)-11-(cyclopropylmethyl)-3,8a-dihydroxy-7,8,8a,9-tetrahydrospiro[9,4b-(epiminoethano)phenanthrene-6,4′-imidazolidine]-2′,5′,10(5H)-trione] | 472 ± 40.8 nM | 0.0375 ± 0.00618 µM | 61.3 ± 5.78% | 12.2 ± 0.61 nM | 0.00879 ± 0.00126 µM | 106 ± 2.52% |  |  |  | 
2 | (4bR,4′S,8aS,9S,10R)-11-(cyclopropylmethyl)-10-fluoro-8a-hydroxy-3-methoxy-5,7,8,8a,9,10-tetrahydrospiro [9,4b-(epiminoethano)phenanthrene-6,4′-imidazolidine]-2′,5′-dione [Compound 18] |  |  |  |  |  |  | 1.55 ± 0.184 µM | 14.7 ± 0.33% | 1.48 ± 0.125 µM | 81.7 ± 0.88%

— patent publication US9994571B2, “10-substituted morphinan hydantoins” (Purdue Pharma L.P., priority 2013, dated 2018)
